Source: PubChem BioAssay (NCI)
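Growth conditions: 96-well plates. Treatment: test compound, 48 hours, 5 concentrations. Analysis: linear interpolation between bracketing concentrations; unreached endpoints set to highest concentration. TGI is the concentration that stops growth completely.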

Tests used:
Assay in all cases: NCI tumour cell line growth inhibition, 48 h
A498 renal = test system: A498 renal
A549 NSCLC = test system: A549 NSCLC
CAKI-1 renal = test system: CAKI-1 renal
CCRF-CEM leukemia = test system: CCRF-CEM leukemia
COLO 205 colon = test system: COLO 205 colon
DLD-1 colon = test system: DLD-1 colon
DMS 273 small cell lung = test system: DMS 273 small cell lung
EKVX NSCLC = test system: EKVX NSCLC
HCC-2998 colon = test system: HCC-2998 colon
HCT-116 colon = test system: HCT-116 colon
HCT-15 colon = test system: HCT-15 colon
HL-60(TB) leukemia = test system: HL-60(TB) leukemia
HOP-18 NSCLC = test system: HOP-18 NSCLC
HOP-62 NSCLC = test system: HOP-62 NSCLC
HOP-92 NSCLC = test system: HOP-92 NSCLC
HT29 colon = test system: HT29 colon
IGROV1 ovarian = test system: IGROV1 ovarian
K-562 leukemia = test system: K-562 leukemia
KM12 colon = test system: KM12 colon
KM20L2 colon = test system: KM20L2 colon
LOX IMVI melanoma = test system: LOX IMVI melanoma
M19-MEL melanoma = test system: M19-MEL melanoma
MALME-3M melanoma = test system: MALME-3M melanoma
MCF7 breast = test system: MCF7 breast
MOLT-4 leukemia = test system: MOLT-4 leukemia
NCI-H226 lung = test system: NCI-H226 lung
NCI-H23 lung = test system: NCI-H23 lung
NCI-H460 lung = test system: NCI-H460 lung
NCI-H522 lung = test system: NCI-H522 lung
NCI/ADR-RES ovarian = test system: NCI/ADR-RES ovarian
OVCAR-3 ovarian = test system: OVCAR-3 ovarian
OVCAR-4 ovarian = test system: OVCAR-4 ovarian
OVCAR-5 ovarian = test system: OVCAR-5 ovarian
OVCAR-8 ovarian = test system: OVCAR-8 ovarian
P388 leukemia = test system: P388 leukemia
P388/ADR leukemia = test system: P388/ADR leukemia
RPMI-8226 leukemia = test system: RPMI-8226 leukemia
RXF 393 renal = test system: RXF 393 renal
SF-268 CNS = test system: SF-268 CNS
SF-295 CNS = test system: SF-295 CNS
SF-539 CNS = test system: SF-539 CNS
SK-MEL-2 melanoma = test system: SK-MEL-2 melanoma
SK-MEL-28 melanoma = test system: SK-MEL-28 melanoma
SK-MEL-5 melanoma = test system: SK-MEL-5 melanoma
SK-OV-3 ovarian = test system: SK-OV-3 ovarian
SN12C renal = test system: SN12C renal
SN12K1 renal = test system: SN12K1 renal
SNB-19 CNS = test system: SNB-19 CNS
SNB-75 CNS = test system: SNB-75 CNS
SNB-78 CNS = test system: SNB-78 CNS
SW-620 colon = test system: SW-620 colon
U251 CNS = test system: U251 CNS
UACC-257 melanoma = test system: UACC-257 melanoma
UACC-62 melanoma = test system: UACC-62 melanoma
UO-31 renal = test system: UO-31 renal
XF 498 CNS = test system: XF 498 CNS
786-0 renal = test system: 786-0 renal
ACHN renal = test system: ACHN renal
DMS 114 small cell lung = test system: DMS 114 small cell lung
LXFL 529 NSCLC = test system: LXFL 529 NSCLC
M14 melanoma = test system: M14 melanoma
RXF-631 renal = test system: RXF-631 renal
SR leukemia = test system: SR leukemia
TK-10 renal = test system: TK-10 renal

Structure (SMILES): CC1(C)S[C@@H]2[C@H](NC(=O)CCC[C@@H](N)C(=O)O)C(=O)N2[C@H]1C(=O)O
- TGI (A498 renal): > 50 µM
- TGI (A549 NSCLC): > 50 µM
- TGI (CAKI-1 renal): > 50 µM
- TGI (CCRF-CEM leukemia): > 50 µM
- TGI (COLO 205 colon): > 50 µM
- TGI (DLD-1 colon): > 50 µM
- TGI (DMS 273 small cell lung): > 50 µM
- TGI (EKVX NSCLC): > 50 µM
- TGI (HCC-2998 colon): > 50 µM
- TGI (HCT-116 colon): > 50 µM
- TGI (HCT-15 colon): > 50 µM
- TGI (HL-60(TB) leukemia): > 50 µM
- TGI (HOP-18 NSCLC): > 50 µM
- TGI (HOP-62 NSCLC): > 50 µM
- TGI (HOP-92 NSCLC): > 50 µM
- TGI (HT29 colon): > 50 µM
- TGI (IGROV1 ovarian): > 50 µM
- TGI (K-562 leukemia): > 50 µM
- TGI (KM12 colon): > 50 µM
- TGI (KM20L2 colon): > 28 µM
- TGI (LOX IMVI melanoma): > 50 µM
- TGI (M19-MEL melanoma): > 50 µM
- TGI (MALME-3M melanoma): > 50 µM
- TGI (MCF7 breast): > 50 µM
- TGI (MOLT-4 leukemia): > 50 µM
- TGI (NCI-H226 lung): > 50 µM
- TGI (NCI-H23 lung): > 50 µM
- TGI (NCI-H460 lung): > 50 µM
- TGI (NCI-H522 lung): > 50 µM
- TGI (NCI/ADR-RES ovarian): > 31.6 µM
- TGI (OVCAR-3 ovarian): > 50 µM
- TGI (OVCAR-4 ovarian): > 50 µM
- TGI (OVCAR-5 ovarian): > 28.1 µM
- TGI (OVCAR-8 ovarian): > 19.9 µM
- TGI (P388 leukemia): > 50 µM
- TGI (P388/ADR leukemia): > 50 µM
- TGI (RPMI-8226 leukemia): > 50 µM
- TGI (RXF 393 renal): > 50 µM
- TGI (SF-268 CNS): > 50 µM
- TGI (SF-295 CNS): > 50 µM
- TGI (SF-539 CNS): > 50 µM
- TGI (SK-MEL-2 melanoma): > 50 µM
- TGI (SK-MEL-28 melanoma): > 50 µM
- TGI (SK-MEL-5 melanoma): > 21.6 µM
- TGI (SK-OV-3 ovarian): 49.9 µM
- TGI (SN12C renal): > 50 µM
- TGI (SN12K1 renal): > 50 µM
- TGI (SNB-19 CNS): > 50 µM
- TGI (SNB-75 CNS): > 50 µM
- TGI (SNB-78 CNS): > 50 µM
- TGI (SW-620 colon): > 31.6 µM
- TGI (U251 CNS): > 28.4 µM
- TGI (UACC-257 melanoma): > 50 µM
- TGI (UACC-62 melanoma): > 50 µM
- TGI (UO-31 renal): > 50 µM
- TGI (XF 498 CNS): > 42 µM

Structure (SMILES): CC1=CC(=O)C(C)(C2=NC(C)(C)CO2)c2ccccc21 (stereo not drawn)
- TGI (786-0 renal): > 100 µM
- TGI (A549 NSCLC): > 100 µM
- TGI (ACHN renal): > 100 µM
- TGI (CAKI-1 renal): > 100 µM
- TGI (CCRF-CEM leukemia): > 100 µM
- TGI (COLO 205 colon): > 100 µM
- TGI (DLD-1 colon): > 100 µM
- TGI (DMS 114 small cell lung): > 100 µM
- TGI (EKVX NSCLC): > 100 µM
- TGI (HCT-116 colon): > 100 µM
- TGI (HCT-15 colon): > 100 µM
- TGI (HL-60(TB) leukemia): > 100 µM
- TGI (HOP-18 NSCLC): > 100 µM
- TGI (HOP-62 NSCLC): > 100 µM
- TGI (HOP-92 NSCLC): > 100 µM
- TGI (HT29 colon): > 100 µM
- TGI (IGROV1 ovarian): > 100 µM
- TGI (K-562 leukemia): > 100 µM
- TGI (KM12 colon): > 100 µM
- TGI (KM20L2 colon): > 100 µM
- TGI (LXFL 529 NSCLC): > 100 µM
- TGI (M14 melanoma): > 100 µM
- TGI (M19-MEL melanoma): > 100 µM
- TGI (MALME-3M melanoma): > 100 µM
- TGI (MOLT-4 leukemia): > 100 µM
- TGI (NCI-H226 lung): > 100 µM
- TGI (NCI-H23 lung): > 100 µM
- TGI (NCI-H460 lung): > 100 µM
- TGI (NCI-H522 lung): > 100 µM
- TGI (OVCAR-3 ovarian): > 100 µM
- TGI (OVCAR-4 ovarian): > 100 µM
- TGI (OVCAR-8 ovarian): > 100 µM
- TGI (RPMI-8226 leukemia): > 100 µM
- TGI (RXF 393 renal): > 100 µM
- TGI (RXF-631 renal): > 100 µM
- TGI (SF-268 CNS): > 100 µM
- TGI (SF-295 CNS): > 100 µM
- TGI (SF-539 CNS): > 100 µM
- TGI (SK-MEL-2 melanoma): > 100 µM
- TGI (SK-MEL-28 melanoma): > 100 µM
- TGI (SK-MEL-5 melanoma): > 100 µM
- TGI (SK-OV-3 ovarian): > 100 µM
- TGI (SN12C renal): > 100 µM
- TGI (SNB-19 CNS): > 100 µM
- TGI (SNB-75 CNS): > 100 µM
- TGI (SR leukemia): > 100 µM
- TGI (SW-620 colon): > 100 µM
- TGI (TK-10 renal): > 100 µM
- TGI (U251 CNS): > 100 µM
- TGI (UACC-257 melanoma): > 100 µM
- TGI (UACC-62 melanoma): > 100 µM
- TGI (UO-31 renal): > 100 µM

Structure (SMILES): C/C(CC(=O)CCCC(=O)Nc1ccc(Cl)cc1Cl)=N/NC(=O)CC#N
- TGI (786-0 renal): > 100 µM
- TGI (A498 renal): > 100 µM
- TGI (A549 NSCLC): > 100 µM
- TGI (ACHN renal): > 100 µM
- TGI (CAKI-1 renal): > 100 µM
- TGI (CCRF-CEM leukemia): > 100 µM
- TGI (COLO 205 colon): > 100 µM
- TGI (DLD-1 colon): > 100 µM
- TGI (DMS 114 small cell lung): > 100 µM
- TGI (DMS 273 small cell lung): > 100 µM
- TGI (EKVX NSCLC): > 100 µM
- TGI (HCC-2998 colon): > 100 µM
- TGI (HCT-116 colon): > 100 µM
- TGI (HCT-15 colon): > 100 µM
- TGI (HL-60(TB) leukemia): > 100 µM
- TGI (HOP-18 NSCLC): > 100 µM
- TGI (HT29 colon): > 100 µM
- TGI (IGROV1 ovarian): > 100 µM
- TGI (K-562 leukemia): > 100 µM
- TGI (KM12 colon): > 100 µM
- TGI (KM20L2 colon): > 100 µM
- TGI (LOX IMVI melanoma): > 100 µM
- TGI (LXFL 529 NSCLC): > 100 µM
- TGI (M14 melanoma): > 100 µM
- TGI (M19-MEL melanoma): > 100 µM
- TGI (MALME-3M melanoma): > 100 µM
- TGI (MOLT-4 leukemia): > 100 µM
- TGI (NCI-H226 lung): > 100 µM
- TGI (NCI-H23 lung): > 100 µM
- TGI (NCI-H460 lung): > 100 µM
- TGI (OVCAR-3 ovarian): > 100 µM
- TGI (OVCAR-4 ovarian): > 100 µM
- TGI (OVCAR-5 ovarian): > 100 µM
- TGI (OVCAR-8 ovarian): > 100 µM
- TGI (RPMI-8226 leukemia): > 100 µM
- TGI (RXF 393 renal): > 100 µM
- TGI (RXF-631 renal): > 100 µM
- TGI (SF-268 CNS): > 100 µM
- TGI (SF-295 CNS): > 100 µM
- TGI (SF-539 CNS): > 100 µM
- TGI (SK-MEL-2 melanoma): > 100 µM
- TGI (SK-MEL-28 melanoma): > 100 µM
- TGI (SK-MEL-5 melanoma): > 100 µM
- TGI (SK-OV-3 ovarian): > 100 µM
- TGI (SN12C renal): > 100 µM
- TGI (SNB-19 CNS): > 100 µM
- TGI (SNB-75 CNS): > 100 µM
- TGI (SNB-78 CNS): > 100 µM
- TGI (SW-620 colon): > 100 µM
- TGI (TK-10 renal): > 100 µM
- TGI (U251 CNS): > 100 µM
- TGI (UACC-257 melanoma): > 100 µM
- TGI (UACC-62 melanoma): > 100 µM
- TGI (UO-31 renal): > 100 µM
- TGI (XF 498 CNS): > 100 µM
